Data on 15 molecules can be found in ChEMBL document CHEMBL1144798, “New chemotypes for cathepsin K inhibitors” (Bioorg Med Chem Lett, 2008).

Assay [1] deals with Procathepsin L (Homo sapiens, UniProt P07711). Description: Inhibition of human recombinant cathepsin L by fluorescence assay.
The target of assay [2] is T1, Cathepsin K (Homo sapiens, UniProt P43235).
T1 sequence (P43235 whole entry): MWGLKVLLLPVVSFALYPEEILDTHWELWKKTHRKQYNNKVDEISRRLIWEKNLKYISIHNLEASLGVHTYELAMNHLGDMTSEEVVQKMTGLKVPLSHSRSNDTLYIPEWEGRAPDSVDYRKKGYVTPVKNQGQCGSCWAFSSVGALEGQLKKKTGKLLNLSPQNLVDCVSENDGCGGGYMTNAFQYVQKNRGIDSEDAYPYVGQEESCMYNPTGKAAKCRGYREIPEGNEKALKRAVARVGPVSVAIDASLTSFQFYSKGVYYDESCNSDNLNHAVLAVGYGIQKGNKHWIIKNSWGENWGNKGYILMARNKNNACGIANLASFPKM
Description: Inhibition of human recombinant cathepsin K by fluorescence assay.

The target of assay [3] is Cathepsin S (Homo sapiens, UniProt P25774). Description: Inhibition of human recombinant cathepsin S by fluorescence assay.
Chain of Cathepsin S (P25774 whole entry): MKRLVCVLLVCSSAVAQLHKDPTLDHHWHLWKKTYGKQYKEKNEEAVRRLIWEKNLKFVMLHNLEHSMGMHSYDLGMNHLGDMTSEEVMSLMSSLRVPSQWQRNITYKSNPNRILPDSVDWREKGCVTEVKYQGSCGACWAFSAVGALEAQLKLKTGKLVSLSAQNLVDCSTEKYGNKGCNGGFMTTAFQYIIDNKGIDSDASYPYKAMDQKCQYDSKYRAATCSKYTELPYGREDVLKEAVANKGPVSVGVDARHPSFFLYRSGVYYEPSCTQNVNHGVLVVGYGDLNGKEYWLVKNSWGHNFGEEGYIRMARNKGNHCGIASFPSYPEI

Broadly, the IC50 is the concentration at which inhibition is half-maximal.

Chain of Procathepsin L (P07711 whole entry): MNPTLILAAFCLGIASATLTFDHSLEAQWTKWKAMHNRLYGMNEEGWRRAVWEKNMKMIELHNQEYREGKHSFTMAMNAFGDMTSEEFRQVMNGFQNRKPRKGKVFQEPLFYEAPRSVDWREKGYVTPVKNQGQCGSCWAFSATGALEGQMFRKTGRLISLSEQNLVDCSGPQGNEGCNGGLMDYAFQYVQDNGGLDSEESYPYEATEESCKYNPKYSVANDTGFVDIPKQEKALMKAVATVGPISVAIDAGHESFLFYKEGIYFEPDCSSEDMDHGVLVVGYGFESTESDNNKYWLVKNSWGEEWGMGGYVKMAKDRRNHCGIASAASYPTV

As to `CC(C)(C)CN(Cc1ccc(Cn2cncn2)cc1)c1ccnc(C#N)n1`, the values for the IC50 in assay [1], in assay [2] and in assay [3] were greater than 1000 nM, 4.8 nM and greater than 1000 nM, respectively.
For the molecule `CN1CCN(c2ccc(CC#Cc3cnc(C#N)nc3NCC(C)(C)C)cc2)CC1`, the values for the 50% inhibitory concentration (IC50) in assay [1], in assay [2] and in assay [3] were 980 nM, 7.1 nM and 760 nM, respectively.
The like results for `CC(C)(C)CN(Cc1ccccc1)c1ccnc(C#N)n1` were, in that order, greater than 1000 nM, 69 nM and greater than 1000 nM.
The corresponding values for `COc1ccc(S(=O)(=O)N2CCN(CC#Cc3cnc(C#N)nc3NCC(C)(C)C)CC2)cc1` are greater than 1000 nM, 7.1 nM and greater than 1000 nM.
The like results for `CC(C)(C)CNc1nc(C#N)ncc1C#CCN1CCc2ccccc2C1` were, in that order, 150 nM, 3.2 nM and 840 nM.
Regarding `CC(C)(C)CNc1nc(C#N)ncc1C#CCN1Cc2ccccc2C1`, the values for the IC50 in assay [1], in assay [2] and in assay [3] were greater than 1000 nM, 10 nM and 920 nM, respectively.
The corresponding values for `CN1CCN(CC#Cc2ccc(CN(CC(C)(C)C)c3ccnc(C#N)n3)cc2)CC1` are greater than 1000 nM, 3.8 nM and greater than 1000 nM.
The corresponding values for `CC(C)(C)CNc1nc(C#N)ncc1C#CCOc1cccnc1` are 1000 nM, 8.6 nM and 460 nM.
For `CC(C)(C)CN(Cc1ccc(C#CCN2CCC(N3CCCCC3)CC2)cc1)c1ccnc(C#N)n1`, the IC50 in assay [1] is greater than 1000 nM; in assay [2], 3.6 nM; in assay [3] it was greater than 1000 nM.
For `CC(C)(C)CN(Cc1ccc(C#CCn2cncn2)cc1)c1ccnc(C#N)n1`, the figures for the IC50 in assay [1], in assay [2] and in assay [3] were greater than 1000 nM, 8.6 nM and greater than 1000 nM, respectively.
For `CC(C)(C)CNc1nc(C#N)ncc1C#CCn1cnc(Cl)c1Cl`, the results for the IC50 in assay [1], in assay [2] and in assay [3] were 190 nM, 7.2 nM and 68 nM, respectively.
With `CC(C)(C)CN(Cc1ccc(C#CCN2CCCCC2)cc1)c1ccnc(C#N)n1`, the figures for the IC50 in assay [1], in assay [2] and in assay [3] were greater than 1000 nM, 7.3 nM and greater than 1000 nM, respectively.
`CC(=O)N1CCN(CC#Cc2ccc(CN(CC(C)(C)C)c3ccnc(C#N)n3)cc2)CC1`: the IC50 is greater than 1000 nM in assay [1], 6.4 nM in assay [2] and greater than 1000 nM in assay [3].
As for `CC(C)(C)CNc1nc(C#N)ncc1C#CCN1CCN(S(=O)(=O)CCCCl)CC1`, the concentration for half-maximal inhibition (IC50) in assay [1] is greater than 1000 nM; in assay [2], 3.7 nM; in assay [3], 800 nM.
Take `CC(C)(C)CN(Cc1ccc(I)cc1)c1ccnc(C#N)n1`: the IC50 in assay [1] was greater than 1000 nM; in assay [2], 19 nM; in assay [3], greater than 1000 nM.
